Assay results published in paper PMC6895048, “4,5-Disubstituted 1,2,3-triazoles: Effective Inhibition of Indoleamine 2,3-Dioxygenase 1 Enzyme Regulates T cell Activity and Mitigates Tumor Growth” (Scientific Reports, 2019).

What was measured:
TDO enzyme = target: T1, TDO enzyme (Homo sapiens, UniProt P48775); test: HPLC based TDO inhibition assay; type: biochemical
T1 construct: 6xHis (N); made in house; host or cells: Escherichia coli BL21 (DE3) (pET 28a vector)
Summary of the method: (§1)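 Purified enzyme (IDO1 40 nM in 100 mM KPB pH 6.5; TDO 25 nM in 50 mM KPB pH 8.0) with 150 µM L-Trp, ascorbate, methylene blue, catalase, 37 °C 1 h; compounds 100 µM–32 nM. TCA quench/hydrolysis, kynurenine quantified by HPLC at 365 nm against standard curve for % inhibition.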

IDO1 [1] = target: T2, IDO1 (Homo sapiens, UniProt P14902); test: Kynurenine assay by HPLC analysis, IDO1; type: biochemical; design: made in house; host or cells: Escherichia coli M15 (pQE30 vector with pREP4 plasmid); details: for % Of inhibition for IDO1 enzyme: HPLC
Summary of the method: as §1

IDO1 [2] = target: T2, IDO1; test: Circular dichroism analysis of IDO1 enzyme; design: made in house; host or cells: Escherichia coli M15 (pQE30 vector with pREP4 plasmid)
Procedure: The Circular Dichroism (CD) spectra of the IDO1 enzyme in the absence or presence of compounds were recorded with a Jasco-810-spectropolarimeter according to the reported procedure[37],[38]. Samples of rIDO1 (2 μM) were prepared in 10 mM KPB buffer (pH 6.5) in a […] quartz cuvette. Spectra were recorded by varying the concentration of the compound (250 nM to 4 µM) using a 1 mL quartz cuvette of 1 cm path length with a Jasco J-1500 spectropolarimeter at 17 °C. Also the spectra were collected at a scan rate […] and 1 nm bandwidth from 200 nm to 260 nm with three times scan for averaging. All final spectra were corrected for buffer background CD signals. The % of the secondary structures of the IDO1 enzyme was analyzed using the inbuilt software of the instrument.

IDO1 [3] = target: T2, IDO1; test: Cellular IDO1 activity assay in IFN-γ induced MDA-MB-231 cells; type: cell-based; design: induce the expression of the native IDO1 enzyme from its mRNA in the MDA-MB-231 cells; endogenous in cells; host or cells: MDA-MB-231 cells induced with human IFN-γ (50 ng/mL); details: IDO1 expression induced by human IFN-γ (50 ng/mL); mean of three

T2 sequence (P14902 whole entry): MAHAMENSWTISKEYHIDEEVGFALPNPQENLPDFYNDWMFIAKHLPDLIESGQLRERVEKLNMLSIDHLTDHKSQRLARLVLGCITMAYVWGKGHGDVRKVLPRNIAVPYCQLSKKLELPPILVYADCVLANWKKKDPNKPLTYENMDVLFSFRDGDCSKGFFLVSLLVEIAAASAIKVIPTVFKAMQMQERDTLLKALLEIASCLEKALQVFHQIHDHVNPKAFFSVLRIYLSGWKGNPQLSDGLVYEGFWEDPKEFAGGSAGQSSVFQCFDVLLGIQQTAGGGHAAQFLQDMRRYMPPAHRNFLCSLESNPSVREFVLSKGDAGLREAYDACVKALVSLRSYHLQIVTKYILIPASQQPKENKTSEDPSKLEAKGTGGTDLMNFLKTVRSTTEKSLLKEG
T1 sequence (P48775 whole entry): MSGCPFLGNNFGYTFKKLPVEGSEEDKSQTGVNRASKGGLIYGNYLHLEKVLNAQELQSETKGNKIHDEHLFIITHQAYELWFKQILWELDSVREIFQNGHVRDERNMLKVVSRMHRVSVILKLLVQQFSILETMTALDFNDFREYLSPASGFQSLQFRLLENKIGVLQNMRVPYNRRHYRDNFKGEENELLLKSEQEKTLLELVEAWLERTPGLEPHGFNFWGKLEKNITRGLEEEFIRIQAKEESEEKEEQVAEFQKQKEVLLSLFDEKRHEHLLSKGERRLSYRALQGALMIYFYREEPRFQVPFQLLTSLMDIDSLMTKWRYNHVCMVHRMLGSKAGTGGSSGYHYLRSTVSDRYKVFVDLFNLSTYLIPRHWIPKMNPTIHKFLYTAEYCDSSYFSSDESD

`CCOC(=O)c1n[nH]nc1-c1ccc(F)c(F)c1` [Compound 2i] was tested, and the “% Of inhibition for TDO enzyme” value (TDO enzyme; 32 nM) was 34%, the “% Of inhibition for TDO enzyme” value (TDO enzyme; 160 nM) was 47% and the “% Of inhibition for TDO enzyme” value (TDO enzyme; 800 nM) was 49%. The “% Of inhibition for TDO enzyme” value (TDO enzyme; 4 µM) was 65%, the “% Of inhibition for TDO enzyme” value (TDO enzyme; 20 µM) was 63% and the “% Of inhibition for TDO enzyme” value (TDO enzyme; 100 µM) was 83%. The IC50 (IDO1 [1]; HPLC based IDO1 inhibition assay) was 396 ± 10 nM, the “% Of inhibition for IDO1 enzyme” value (IDO1 [1]; 32 nM) was 21% and the “% Of inhibition for IDO1 enzyme” value (IDO1 [1]; 160 nM) was 29%. The “% Of inhibition for IDO1 enzyme” value (IDO1 [1]; 800 nM) was 59%, the “% Of inhibition for IDO1 enzyme” value (IDO1 [1]; 4 µM) was 60% and the “% Of inhibition for IDO1 enzyme” value (IDO1 [1]; 20 µM) was 78%. The “% Of inhibition for IDO1 enzyme” value (IDO1 [1]; 100 µM) was 80%, the “% of Secondary structural elements, Beta” value (IDO1 [2]; compound 0.25 µM) was 0% and the “% of Secondary structural elements, Helix” value (IDO1 [2]; compound 0.25 µM) was 28%. The “% of Secondary structural elements, Random” value (IDO1 [2]; compound 0.25 µM) was 37.9%, the “% of Secondary structural elements, Turn” value (IDO1 [2]; compound 0.25 µM) was 34.1% and the “% of Secondary structural elements, Beta” value (IDO1 [2]; compound 0.5 µM) was 0%. For the same molecule, the “% of Secondary structural elements, Helix” value (IDO1 [2]; compound 0.5 µM) was 28.7%, the “% of Secondary structural elements, Random” value (IDO1 [2]; compound 0.5 µM) was 36.1% and the “% of Secondary structural elements, Turn” value (IDO1 [2]; compound 0.5 µM) was 35.2%. For the same molecule, the “% of Secondary structural elements, Beta” value (IDO1 [2]; compound 1 µM) was 0%, the “% of Secondary structural elements, Helix” value (IDO1 [2]; compound 1 µM) was 30.2% and the “% of Secondary structural elements, Random” value (IDO1 [2]; compound 1 µM) was 33.5%. For the same molecule, the “% of Secondary structural elements, Turn” value (IDO1 [2]; compound 1 µM) was 36.3%, the “% of Secondary structural elements, Beta” value (IDO1 [2]; compound 2 µM) was 0% and the “% of Secondary structural elements, Helix” value (IDO1 [2]; compound 2 µM) was 30.5%. The “% of Secondary structural elements, Random” value (IDO1 [2]; compound 2 µM) was 33.8%, the “% of Secondary structural elements, Turn” value (IDO1 [2]; compound 2 µM) was 35.7% and the “% of Secondary structural elements, Beta” value (IDO1 [2]; compound 4 µM) was 0%. For the same molecule, the “% of Secondary structural elements, Helix” value (IDO1 [2]; compound 4 µM) was 30.5%, the “% of Secondary structural elements, Random” value (IDO1 [2]; compound 4 µM) was 35.7% and the “% of Secondary structural elements, Turn” value (IDO1 [2]; compound 4 µM) was 33.8%. It also gave an EC50 (IDO1 [3]) of 162 ± 15 nM.
